For the data set, the system named is soybean plants containing event EE-GM5. The data set is described as follows: HPPD inhibitor herbicide tolerance field trials on plants with EE-GM5 (maximum phytotoxicity). The following applies: for tolerance of plants with EE-GM5 to the herbicide: field, different locations over 2 years, applied pre-emergence or post-emergence. The class given is in vivo, soybean (Glycine max). How it is done:
Tolerance of plants comprising EE-GM5 to HPPD inhibitor herbicides was tested at different locations in the field over 2 years. […] All post-emergence treatments were at the V2-V3 stage, with adjuvants crop oil concentrate and ammonium sulfate added to increase herbicide activity.
The “maximum phytotoxicity” as used herein is the highest phytotoxicity rating recorded at any observation during the duration of a trial (with 3 to 4 observations per trial). In existing weed control applications, a normal (1×) dose for isoxaflutole (IFT) in pre- or post-emergence application and for MST in post-emergence application is 105 gr/ha, and a normal (1×) dose for mesotrione in pre-emergence application is 210 gr/ha.
Also, in several field trials across 2 years, soybean plants with event EE-GM5 had good tolerance towards experimental HPPD inhibitor compound 2-methyl-N-(5-methyl-1,3,4-oxadiazol-2-yl)-3-(methylsulfonyl)-4-(trifluoromethyl)benzamide (U.S. Pat. No. 9,101,141) when applied pre-emergence at 400 gr ai/ha or post-emergence at 200 gr ai/ha, respectively (the average maximum phytotoxicity value for each treatment was below 20%). […] All post-emergence treatments were at the V2-V3 stage, with adjuvants crop oil concentrate and ammonium sulfate added to increase herbicide activity.
Also, plants with EE-GM5 when treated post-emergent (V2-V3) with topramezone at 36 g ai/ha (+COC and AMS) in 2 field trials in the US gave an average maximum phytotoxicity of 11%, showing EE-GM5 also confers good tolerance to this HPPD inhibitor.

Molecules are shown by their SMILES.

For `CSc1c(C(F)(F)F)ccc(C(=O)Nc2nnnn2C)c1Cl` [2-chloro-3-(methylsulfanyl)-N-(1-methyl-1H-tetrazol-5-yl)-4-(trifluoromethyl)benzamide], the average maximum phytotoxicity runs as follows: (3rd year, EE-GM5 in Thorne background, 150 g/ha post-emergence, 3 field trial locations) 13.3%; (several field trials across 2 years, post-emergence (V2-V3) at 100-150 gr ai/ha) 20%. Regarding `Cc1nnc(NC(=O)c2ccc(C(F)(F)F)c(S(C)(=O)=O)c2C)o1` [2-methyl-N-(5-methyl-1,3,4-oxadiazol-2-yl)-3-(methylsulfonyl)-4-(trifluoromethyl)benzamide], the “average maximum phytotoxicity value” reads like this: (several field trials across 2 years, post-emergence (V2-V3) at 200 gr ai/ha) “below 20%”; (several field trials across 2 years, pre-emergence at 400 gr ai/ha) “below 20%”. For `CS(=O)(=O)c1cc(C(F)(F)F)ccc1C(=O)c1cnoc1C1CC1` [isoxaflutole, (5-cyclopropyl-4-isoxazolyl)[2-(methylsulfonyl)-4-(trifluoromethyl)phenyl]methanone], the “tolerance of plants with EE-GM5 to the herbicide” value is given as “commercially relevant tolerance”. Besides, under “3rd year, EE-GM5 in Thorne background, post-emergence V2-V3 stage at 210 g/ha, 4 locations”, the average maximum phytotoxicity worked out at 10.9%. Also, the maximum phytotoxicity (3rd year, EE-GM5 in Thorne background, pre-emergence at 410 g/ha, one field trial location) is 9%.

With `CS(=O)(=O)c1ccc(C(=O)C2C(=O)CCCC2=O)c([N+](=O)[O-])c1` [mesotrione, 2-[4-(Methylsulfonyl)-2-nitrobenzoyl]cyclohexane-1,3-dione], the “tolerance of plants with EE-GM5 to the herbicide” value is “commercially relevant tolerance”. Under “post-emergent (V2-V3) at 36 g ai/ha (+COC and AMS), 2 field trials in the US”, `Cc1c(C(=O)c2cnn(C)c2O)ccc(S(C)(=O)=O)c1C1=NOCC1` [topramezone, [3-(4,5-dihydro-3-isoxazolyl)-2-methyl-4-(methylsulfonyl)phenyl](5-hydroxy-1-methyl-1H-pyrazol-4-yl)methanone] yielded an average maximum phytotoxicity of 11%.

Source of the values: patent US11555202B2, “Elite event EE-GM5 and methods and kits for identifying such event in biological samples” (priority 2016, dated 2023).
